A short description of data set [1]: Phosphate-buffered saline (PBS) solubility of compounds. The class given is physicochemical. The note with it: aqueous buffer, thermodynamic from solid, PBS pH 7.5, 0.5 mg/mL, vortexed 90 min, filtered, LC-MS/MS, read-out: Solubility Range. On the procedure:
PBS solutions (pH 7.5) were prepared according to the following compositions and stored at 4° C. Test compounds were dissolved in PBS (pH 7.5) at 0.5 mg/mL and vortexed for 90 min. The PBS solution was sequentially filtered through a 0.45, 1.2, […] syringe filter. Concentration of test compounds were determined using LC-MS/MS with appropriate dilution of the samples.

Data set [2] concerns the target T1, human wild type-CFTR (Homo sapiens, UniProt P13569). Kind of data set: Short-circuit current measurement. The class given is cell-based. On the set-up: expressed in transfected cells. Conditions: FRT cells expressing human wild type-CFTR; Forskolin 20 μM signal used as 100% activity; read-out: Short-circuit current measurement (EC50) Concentration range. The source says:
Forskolin (Tocris cat. #1099), CFTRinh-172 (Tocris cat. #3430), amphotericin B (Tocris cat. #6930), dimethyl sulfoxide (Sigma cat. #D4540), EVC4000 Multi-Channel V/I Clamp (World Precision Instruments, Sarasota, FL), PowerLab 4/35 (AD Instruments, Castle Hill, Australia), Labchart Pro 7, GraphPad Prism 5 (GraphPad Software, Inc.). Fisher rat thyroid (FRT) cells expressing human wild type-CFTR were provided by Dr. Alan Verkman (University of California, San Francisco) and grown in DMEM/F12 medium (1:1) supplemented with 10% FBS, 2 mM glutamine, 100 units/ml penicillin and 100 μg/ml streptomycin. Snapwell inserts containing CF TR-expressing FRT cells were mounted in Ussing chambers (Physiologic Instruments, San Diego, CA). […] Forskolin, test compounds, and CFTRinh-172 were added to the apical and basolateral bath solution. Apical membrane current and short-circuit current were measured with an EVC4000 Multi-Channel V/I Clamp (World Precision Instruments, Sarasota, FL) and recorded using PowerLab 4/35 (AD Instruments, Castle Hill, Australia). Data were collected and analyzed with ADInstruments acquisition software Labchart Pro 7 software. The sampling rate was 4 Hz.

Data set [3] concerns the target T1, human wild type-CFTR. The data set can be described thus: Cell-based YFP assay. Details: expressed in transfected cells; host or cells: CHO-K1 (Chinese hamster ovary). Conditions: CHO-K1 cells expressing human wild type-CFTR and YFP-H148Q/I152L; forskolin 20 μM = 100% activity; read-out: Cell-based YFP Assay (EC50) Concentration Range. Summed up: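 I⁻-driven YFP fluorescence quenching at 37 °C: 2 s baseline, addition of 140 mM iodide solution, then 14 s of readings at 0.4 s intervals. Cells were CHO-K1 expressing human wild-type CFTR plus YFP-H148Q/I152L. EC50 derived from averaged triplicates.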

The structures appear in SMILES notation. In brackets after ≈: the same amount, converted by molar mass.

T1 sequence (P13569 whole entry): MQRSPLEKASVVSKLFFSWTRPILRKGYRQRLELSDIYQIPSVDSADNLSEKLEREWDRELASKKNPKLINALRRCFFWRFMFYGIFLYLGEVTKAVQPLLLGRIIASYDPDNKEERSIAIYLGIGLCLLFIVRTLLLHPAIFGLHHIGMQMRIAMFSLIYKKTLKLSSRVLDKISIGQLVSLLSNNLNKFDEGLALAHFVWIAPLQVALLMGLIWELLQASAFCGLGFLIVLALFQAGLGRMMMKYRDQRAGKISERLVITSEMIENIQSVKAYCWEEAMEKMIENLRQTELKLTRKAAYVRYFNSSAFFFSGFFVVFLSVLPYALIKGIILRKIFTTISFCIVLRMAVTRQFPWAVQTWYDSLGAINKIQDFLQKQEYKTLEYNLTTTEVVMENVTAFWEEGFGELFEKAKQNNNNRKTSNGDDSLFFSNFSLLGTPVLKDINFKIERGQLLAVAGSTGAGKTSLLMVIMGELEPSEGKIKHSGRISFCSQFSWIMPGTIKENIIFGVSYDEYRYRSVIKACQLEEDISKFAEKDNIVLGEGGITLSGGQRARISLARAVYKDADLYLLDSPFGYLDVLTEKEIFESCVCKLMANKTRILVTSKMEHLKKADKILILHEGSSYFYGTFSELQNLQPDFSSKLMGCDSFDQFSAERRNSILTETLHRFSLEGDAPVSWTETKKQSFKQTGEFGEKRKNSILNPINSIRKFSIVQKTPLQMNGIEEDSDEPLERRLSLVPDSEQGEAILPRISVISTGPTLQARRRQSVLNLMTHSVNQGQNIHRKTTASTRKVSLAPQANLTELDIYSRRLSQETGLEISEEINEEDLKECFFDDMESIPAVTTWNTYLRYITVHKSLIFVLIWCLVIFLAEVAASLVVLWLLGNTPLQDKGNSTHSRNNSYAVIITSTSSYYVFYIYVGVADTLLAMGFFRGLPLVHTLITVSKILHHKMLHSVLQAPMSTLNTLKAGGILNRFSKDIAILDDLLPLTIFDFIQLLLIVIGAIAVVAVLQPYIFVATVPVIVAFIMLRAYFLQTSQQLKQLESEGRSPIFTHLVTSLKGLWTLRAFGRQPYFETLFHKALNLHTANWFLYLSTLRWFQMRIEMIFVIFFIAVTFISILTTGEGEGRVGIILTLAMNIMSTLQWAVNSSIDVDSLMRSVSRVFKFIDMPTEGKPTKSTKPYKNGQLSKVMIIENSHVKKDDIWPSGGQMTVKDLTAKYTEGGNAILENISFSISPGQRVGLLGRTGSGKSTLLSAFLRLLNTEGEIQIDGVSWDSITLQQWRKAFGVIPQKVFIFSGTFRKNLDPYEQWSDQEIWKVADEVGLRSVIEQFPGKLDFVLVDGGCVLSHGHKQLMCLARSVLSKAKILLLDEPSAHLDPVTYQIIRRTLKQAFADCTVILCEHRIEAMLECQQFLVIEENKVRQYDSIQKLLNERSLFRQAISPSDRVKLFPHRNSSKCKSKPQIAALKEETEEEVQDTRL

Take `COC(=O)c1ccc2c(c1)N(C(=O)c1cc3nccc(-c4ccc(OC)c(OC)c4)n3n1)CC2` [Compound 132, methyl 1-(7-(3,4-dimethoxyphenyl)pyrazolo [1,5-a]pyrimidine-2-carbonyl)indoline-6-carboxylate]: the solubility at 90 min in data set [1] was under 0.1 µg/mL. Besides, the EC50 is 200 to 2000 nM at human wild type-CFTR [2] and under 200 nM at human wild type-CFTR [3].
Turning to `COc1ccc(-c2ccnc3cc(C(=O)Nc4ccc(N5CCC(=O)CC5)cc4)nn23)cc1OC` [Compound 285, 7-(3,4-dimethoxyphenyl)-N-(4-(4-oxopiperidin-1-yl)phenyl)pyrazolo [1,5-a]pyrimidine-2-carboxamide], the EC50 at human wild type-CFTR [2] and at human wild type-CFTR [3] was under 200 nM in each case.
Take `COc1ccc(-c2ccnc3cc(C(=O)Nc4ccc(C(=O)O)cc4)nn23)cc1OC` [Compound 14, 4-(7-(3,4-dimethoxyphenyl)pyrazolo[1,5-a]pyrimidine-2-carboxamido)benzoic acid]: the solubility at 90 min in data set [1] was 0.1 to 10 µg/mL (≈ 0.239 to 23.9 µM). The EC50 at human wild type-CFTR [2] was at least 2000 nM; at human wild type-CFTR [3], 200 to 2000 nM.
`CCOC(=O)N1CCN(C(=O)c2cc3nccc(-c4ccc(OC)c(OC)c4)n3n2)CC1` [Compound 86, ethyl 4-(7-(3,4-dimethoxyphenyl)pyrazolo[1,5-a]pyrimidine-2-carbonyl) piperazine-1-carboxylate]: the EC50 was at least 2000 nM at human wild type-CFTR [2] and 200 to 2000 nM on human wild type-CFTR [3].
With `COC(=O)c1ccc(NC(=O)c2cc3nccc(-c4ccc(OC)c(OC)c4)n3n2)nc1` [Compound 31, methyl 6-(7-(3,4-dimethoxyphenyl)pyrazolo [1,5-a]pyrimidine-2-carboxamido)nicotinate], in data set [1], the solubility at 90 min is under 0.1 µg/mL. Moreover, the EC50 at human wild type-CFTR [2] and on human wild type-CFTR [3] was under 200 nM throughout.
Regarding `COc1ccc(-c2ccnc3cc(C(=O)Nc4ccc(C(=O)O)cn4)nn23)cc1OC` [Compound 78, 6-(7-(3,4-dimethoxyphenyl)pyrazolo[1,5-a]pyrimidine-2-carboxamido) nicotinic acid], the EC50 at human wild type-CFTR [2] and on human wild type-CFTR [3] was 200 to 2000 nM in each case.
As for `CCOC(=O)N1CCN(C(=O)c2cc3nccc(-c4ccc(OC)c(OC)c4)n3n2)CC1` [Compound 111, ethyl 4-(7-(3,4-dimethoxyphenyl)pyrazolo[1,5-a]pyrimidine-2-carbonyl) piperazine-1-carboxylate], the EC50 was at least 2000 nM at human wild type-CFTR [2] and 200 to 2000 nM on human wild type-CFTR [3].
Taken in the same sequence, the figures for `COc1ccc(-c2ccnc3cc(C(=O)Nc4ccc(C(=O)N5CCN(C)CC5)cc4Cl)nn23)cc1OC` [Compound 137, N-(2-chloro-4-(4-methylpiperazine-1-carbonyl)phenyl)-7-(3,4-dimethoxyphenyl)pyrazolo [1,5-a]pyrimidine-2-carboxamide] were 200 to 2000 nM and 200 to 2000 nM.
Regarding `COc1ccc(-c2ccnc3cc(C(=O)Nc4ccc(OC(=O)[C@@H](NC(=O)OC(C)(C)C)C(C)C)cc4)nn23)cc1OC` [Compound 200, 4-(7-(3,4-dimethoxyphenyl)pyrazolo[1,5-a]pyrimidine-2-carboxamido)phenyl(tert-butoxycarbonyl)-L-valinate], the EC50 on human wild type-CFTR [2] and on human wild type-CFTR [3] was under 200 nM in each case.
Take `COc1ccc(-c2ccnc3cc(C(=O)Nc4ccccn4)nn23)cc1OC` [Compound 17, 7-(3,4-dimethoxyphenyl)-N-(pyridin-2-yl)pyrazolo[1,5-a] pyrimidine-2-carboxamide]: the solubility at 90 min in data set [1] is under 0.1 µg/mL. The EC50 on human wild type-CFTR [2] and on human wild type-CFTR [3] was under 200 nM in each case.
On to `COc1ccc(-c2ccnc3cc(C(=O)Nc4ccc(N5CCCC5)cc4)nn23)cc1OC` [Compound 277, 7-(3,4-dimethoxyphenyl)-N-(4-(pyrrolidin-1-yl)phenyl)pyrazolo[1,5-a] pyrimidine-2-carboxamide], for which the solubility at 90 min in data set [1] was under 0.1 µg/mL. Moreover, the EC50 at human wild type-CFTR [2] and on human wild type-CFTR [3] was under 200 nM in each case.
On to `COc1ccc(-c2ccnc3cc(C(=O)Nc4ccc(N5CCCC5)cn4)nn23)cc1OC` [Compound 289, 7-(3,4-dimethoxyphenyl)-N-(5-(pyrrolidin-1-yl)pyridin-2-yl)pyrazolo[1,5-a]pyrimidine-2-carboxamide], for which the EC50 on human wild type-CFTR [2] and at human wild type-CFTR [3] was under 200 nM each time.

As a reminder, the solubility is the concentration that dissolves in the medium under given conditions.

These data come from patent US20240199623A1 (ILDONG PHARMACEUTICAL CO., LTD., priority 2020, published 2024).
